What was measured:
Test in all cases: relative viability (nuclei count vs DMSO), 5 days (fraction); higher = more cells survive
Decitabine + Navitoclax = compound: Nc1ncn([C@H]2C[C@H](O)[C@@H](CO)O2)c(=O)n1 [Decitabine] + CC1(C)CCC(c2ccc(Cl)cc2)=C(CN2CCN(c3ccc(C(=O)NS(=O)(=O)c4ccc(N[C@H](CCN5CCOCC5)CSc5ccccc5)c(S(=O)(=O)C(F)(F)F)c4)cc3)CC2)C1 [Navitoclax] (partner 0.5 µM)
How it was run: (§1)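 Relative viability equals treated-well nuclei counts divided by vehicle-well nuclei counts. Counts came from 4× images of lung cancer cell lines grown in 1536-well plates for 5 days after pin-tool dosing on the day after seeding. Dosing used one drug alone or a fixed anchor-drug dose plus five library-drug doses (not always all listed) in √10 steps, and values are medians of duplicate plates.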

Decitabine + Dasatinib = compound: Nc1ncn([C@H]2C[C@H](O)[C@@H](CO)O2)c(=O)n1 [Decitabine] + Cc1nc(Nc2ncc(C(=O)Nc3c(C)cccc3Cl)s2)cc(N2CCN(CCO)CC2)n1 [Dasatinib] (partner 0.075 µM)
How it was run: as §1

Cediranib + Olaparib = compound: COc1cc2c(Oc3ccc4[nH]c(C)cc4c3F)ncnc2cc1OCCCN1CCCC1 [Cediranib] + O=C(c1cc(Cc2n[nH]c(=O)c3ccccc23)ccc1F)N1CCN(C(=O)C2CC2)CC1 [Olaparib] (partner 8 µM)
How it was run: as §1

Cediranib + Pemetrexed = compound: COc1cc2c(Oc3ccc4[nH]c(C)cc4c3F)ncnc2cc1OCCCN1CCCC1 [Cediranib] + Nc1nc2[nH]cc(CCc3ccc(C(=O)N[C@@H](CCC(=O)O)C(=O)O)cc3)c2c(=O)[nH]1 [Pemetrexed] (partner 0.2 µM)
How it was run: as §1

Cell Line	relative viability (Decitabine + Navitoclax; first compound 0.04 µM)	relative viability (Decitabine + Navitoclax; first compound 0.1265 µM)	relative viability (Decitabine + Navitoclax; first compound 0.4 µM)	relative viability (Decitabine + Navitoclax; first compound 1.265 µM)	relative viability (Decitabine + Navitoclax; first compound 4 µM)	relative viability (Decitabine + Dasatinib; first compound 0.04 µM)	relative viability (Decitabine + Dasatinib; first compound 0.1265 µM)	relative viability (Decitabine + Dasatinib; first compound 0.4 µM)	relative viability (Decitabine + Dasatinib; first compound 1.265 µM)	relative viability (Decitabine + Dasatinib; first compound 4 µM)	relative viability (Cediranib + Olaparib; first compound 0.04 µM)	relative viability (Cediranib + Olaparib; first compound 0.1265 µM)	relative viability (Cediranib + Olaparib; first compound 0.4 µM)	relative viability (Cediranib + Olaparib; first compound 1.265 µM)	relative viability (Cediranib + Olaparib; first compound 4 µM)	relative viability (Cediranib + Pemetrexed; first compound 0.04 µM)	relative viability (Cediranib + Pemetrexed; first compound 0.1265 µM)	relative viability (Cediranib + Pemetrexed; first compound 0.4 µM)	relative viability (Cediranib + Pemetrexed; first compound 1.265 µM)	relative viability (Cediranib + Pemetrexed; first compound 4 µM)
NCI-H727	0.302	0.361	0.343	0.272	0.292	0.397	0.458	0.338	0.334	0.34	0.656	0.679	0.684	0.728	0.73					
NCI-H358						0.255	0.203	0.216	0.137	0.153	0.659	0.66	0.503	0.64	0.666	0.176	0.198	0.168	0.17	0.187
NCI-H1437	0.768	0.676	0.371	0.271	0.27	0.357	0.376	0.256	0.167	0.169	0.662	0.614	0.615	0.599	0.627	0.33	0.299	0.289	0.334	0.337
NCI-H441	0.258	0.293	0.274	0.259	0.223	0.335	0.266	0.26	0.211	0.206	0.564	0.605	0.597	0.702	0.575	0.265	0.291	0.258	0.271	0.257
EMC-BAC-2	1.08	1.12	0.773	0.705	0.605	0.334	0.343	0.343	0.284	0.26	0.474		0.476	0.502	0.402	0.565	0.47	0.433	0.464	0.477
NCI-H647	0.796	0.836	0.355	0.219	0.178	0.212	0.261	0.196	0.104	0.0939	0.772	0.652	0.501	0.551	0.437	0.185	0.254	0.2	0.178	0.172
CAL-12T	1.02	0.867	0.752	0.627	0.497	0.356	0.477		0.212	0.235	0.815	0.646	0.647	0.74	0.786	1.03	1.29	1.14	1.13	1.03
NCI-H1792	0.6	0.672	0.625	0.454	0.304	0.835	0.86	0.861	0.677	0.558		0.713	0.321	0.435	0.557		1.13	0.567	0.742	0.796
H3255	0.201	0.331	0.353	0.328	0.276		0.341	0.251	0.351	0.252	0.524	0.503	0.564	0.643	0.542	0.588	0.542	0.567	0.533	0.54
HCC-78	0.71	0.561	0.458	0.329	0.284	0.269	0.334	0.361	0.285	0.208	0.963	1.01	0.83	0.96	1.04	0.912	0.879	0.901	0.899	0.901
EBC-1	0.21	0.257	0.2	0.178	0.15						0.715	0.744	0.668	0.786	0.88					
NCI-H2405	0.769	0.837	0.455	0.355	0.244	0.209	0.194	0.286	0.204	0.203	0.888	0.897	0.766	0.888	0.876	1.02	1.01	0.997	1.1	1.16
A549	0.929	0.875	0.331	0.117	0.077						0.353	0.23	0.302	0.333	0.473					
NCI-H3122	0.999	0.984	0.97	0.886	0.76	0.665	0.833	0.233	0.321	0.459	0.702		0.577	0.601	0.651	0.227	0.238	0.191	0.203	0.216
NCI-H1563						0.447	0.462	0.584	0.485	0.499						0.885	0.879	0.843	0.675	0.872
HCC-44	0.78	0.74	0.362	0.408	0.425						0.966	0.894	0.963	0.932	0.974	0.695	0.589	0.637	0.656	0.682
PC-3 [JPC-3]		0.601	0.526	0.463	0.51	0.628	0.782	0.565	0.437	0.399	1.23		1.09	1.21	0.834	1.03		1.08	1.17	0.96
NCI-H1993	0.917	0.993	0.906	0.732	0.87	0.542	0.57	0.608	0.484	0.55		0.933	0.847	1.1	1.09		0.581	0.627	0.49	0.585
LOU-NH91	0.372	0.645	0.503	0.458	0.525	0.43	0.551	0.627	0.491	0.519	0.972	0.936	0.88	0.908	0.86	0.447	0.347	0.357	0.337	0.36

Reference: the supplement of paper PMC10307832
